Measured values taken from US9040553B2, “Phenoxyisobutyric acid compounds and method of synthesis” (CELL VIABLE CORPORATION, priority 2010, dated 2015).

Target: BSA (Bos taurus, UniProt P02769)
Assay: BSA glycation inhibition (glucose incubation, SDS gel/PVDF blot, periodic acid-Schiff staining)
Format: biochemical
Settings: BSA incubated with glucose and compound at 37° C. for 5 weeks; periodic acid-Schiff base staining of blot
Procedure: Compound No. 1 was tested for glycation activity according to the following protocol:
BSA was incubated in the presence of glucose and Compound No. 1 at 37° C. for 5 weeks. Aliquots of 2 μg protein were run on an SDS gel and transferred to PVDF membrane—the same procedure as for a western blot. The membrane was then processed to identify glycoprotein content by the periodic acid-Schiff base method. The positive reaction is pink, and glycation also shifts the molecular weight so the band migrates more slowly down the gel (higher position on the blot). […] Amimoguanadine was used as a control Reduced staining is an indication of glycation inhibition.

BSA, sequence (P02769 25-607): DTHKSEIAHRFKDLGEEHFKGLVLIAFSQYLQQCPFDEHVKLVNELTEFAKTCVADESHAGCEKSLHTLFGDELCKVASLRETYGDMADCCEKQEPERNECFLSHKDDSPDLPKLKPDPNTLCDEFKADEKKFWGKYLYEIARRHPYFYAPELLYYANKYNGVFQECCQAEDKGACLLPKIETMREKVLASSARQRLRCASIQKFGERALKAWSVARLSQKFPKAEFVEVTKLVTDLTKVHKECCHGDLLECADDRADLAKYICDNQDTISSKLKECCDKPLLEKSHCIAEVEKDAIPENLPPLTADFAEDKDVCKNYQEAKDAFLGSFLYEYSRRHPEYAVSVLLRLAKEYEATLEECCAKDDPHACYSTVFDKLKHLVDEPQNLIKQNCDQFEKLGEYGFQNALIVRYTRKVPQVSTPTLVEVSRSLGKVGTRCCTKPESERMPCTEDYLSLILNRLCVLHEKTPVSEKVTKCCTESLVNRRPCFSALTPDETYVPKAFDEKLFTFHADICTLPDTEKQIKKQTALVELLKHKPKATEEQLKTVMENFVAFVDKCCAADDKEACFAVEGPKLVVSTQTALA

## 3,3′-dichloro-1,1′-diphenyl-4,4′-diureidophenoxyisobutyric acid [Compound No. 1]
  glycation inhibition (reduced glycoprotein staining): found to inhibit glycation
